Measurements from ChEMBL document CHEMBL2176914, “Selective histone deacetylase 6 inhibitors bearing substituted urea linkers inhibit melanoma cell growth” (J Med Chem, 2012).
The source made the active and inactive calls. The calls are words filed in the database; no cut-off is given here.

Legend:
Homo sapiens = species: Homo sapiens; assay: Selectivity index, ratio of IC50 for human recombinant HDAC1 to IC50 for human recombinant HDAC6
B16 [1] = assay: Growth inhibition of mouse B16 cells incubated for 48 hrs by MTT assay; assay type: functional; settings: for GI50: B16, 48 h
[2] = biological target: T1, Protein deacetylase HDAC6 (Mus musculus) (UniProt Q9Z2V5); assay: Inhibition of HDAC6 in mouse B16 cells assessed as increase in acetyl alpha-tubulin level incubated for 24 hrs by Western blotting; assay type: cell-based
T1 sequence (whole entry): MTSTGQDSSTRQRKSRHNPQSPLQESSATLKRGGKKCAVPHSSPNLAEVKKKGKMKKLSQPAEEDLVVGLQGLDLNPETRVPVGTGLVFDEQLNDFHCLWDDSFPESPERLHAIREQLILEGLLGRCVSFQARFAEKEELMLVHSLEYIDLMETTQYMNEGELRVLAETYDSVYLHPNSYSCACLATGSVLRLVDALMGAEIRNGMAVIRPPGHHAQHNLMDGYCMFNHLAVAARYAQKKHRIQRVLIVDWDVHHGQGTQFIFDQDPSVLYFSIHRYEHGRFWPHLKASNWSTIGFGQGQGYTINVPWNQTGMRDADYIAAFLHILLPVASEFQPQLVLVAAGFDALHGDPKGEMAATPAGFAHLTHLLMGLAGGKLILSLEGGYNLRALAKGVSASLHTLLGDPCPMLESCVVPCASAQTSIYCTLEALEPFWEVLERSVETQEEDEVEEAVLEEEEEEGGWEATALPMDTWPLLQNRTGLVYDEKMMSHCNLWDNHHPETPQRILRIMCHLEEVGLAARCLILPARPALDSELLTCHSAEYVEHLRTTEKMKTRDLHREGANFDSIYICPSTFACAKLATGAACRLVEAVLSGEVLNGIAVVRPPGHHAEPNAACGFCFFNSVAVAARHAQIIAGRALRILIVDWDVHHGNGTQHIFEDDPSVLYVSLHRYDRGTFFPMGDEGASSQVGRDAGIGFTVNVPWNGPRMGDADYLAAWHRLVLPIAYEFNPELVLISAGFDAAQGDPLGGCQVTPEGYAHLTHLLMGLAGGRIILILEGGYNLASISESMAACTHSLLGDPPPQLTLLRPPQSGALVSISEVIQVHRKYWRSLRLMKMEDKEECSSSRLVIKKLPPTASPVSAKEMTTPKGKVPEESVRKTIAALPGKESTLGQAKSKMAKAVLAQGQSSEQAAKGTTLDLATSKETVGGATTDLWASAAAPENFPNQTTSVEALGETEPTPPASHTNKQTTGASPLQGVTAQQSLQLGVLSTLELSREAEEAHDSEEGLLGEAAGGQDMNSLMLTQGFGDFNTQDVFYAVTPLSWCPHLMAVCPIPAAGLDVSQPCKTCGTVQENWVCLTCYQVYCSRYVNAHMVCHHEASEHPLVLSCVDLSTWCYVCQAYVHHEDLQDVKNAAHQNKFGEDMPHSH

B16 [3] = assay: Inhibition of Class 1 histone deacetylase in mouse B16 cells assessed as increase in histone H3 acetylation at 1 uM incubated for 24 hrs by Western blotting; assay type: cell-based
B16 [4] = assay: Inhibition of Class 1 histone deacetylase in mouse B16 cells assessed as increase in histone H3 acetylation at 1 to 100 nM incubated for 24 hrs by Western blotting; assay type: cell-based
B16 [5] = assay: Inhibition of Class 1 histone deacetylase in mouse B16 cells assessed as increase in histone H3 acetylation at 10 uM incubated for 24 hrs by Western blotting; assay type: cell-based

## O=C(NO)c1ccc(CN(CCc2ccccc2)C(=O)Nc2ccccc2)cc1
Homo sapiens
  Ratio IC50: 222
B16 [1]
  growth inhibition (GI): Dose-dependent effect
  GI50: 15.4 µM

## CN1CCc2c(c3ccccc3n2Cc2ccc(C(=O)NO)cc2)C1 [TUBASTATIN A]
B16 [1]
  growth inhibition (GI): Dose-dependent effect
  GI50: 40.5 µM

## COc1ccccc1NC(=O)NCc1ccc(C(=O)NO)cc1
Homo sapiens
  Ratio IC50: 2

## COCCN(Cc1ccc(C(=O)NO)cc1)C(=O)Nc1ccccc1
Homo sapiens
  Ratio IC50: 243
B16 [1]
  growth inhibition (GI): Dose-dependent effect

## COCCCN(C(=O)NCc1ccc(C(=O)NO)cc1)c1ccccc1
Homo sapiens
  Ratio IC50: 226
B16 [1]
  growth inhibition (GI): Dose-dependent effect
  GI50: > 100 µM

## CCCCN(C(=O)NCc1ccc(C(=O)NO)cc1)c1ccccc1
Homo sapiens
  Ratio IC50: 322
B16 [1]
  growth inhibition (GI): Dose-dependent effect
  GI50: 65.8 µM

## Cc1[nH]c2ccccc2c1CCNCc1ccc(/C=C/C(=O)NO)cc1 [PANOBINOSTAT]
B16 [1]
  growth inhibition (GI): Dose-dependent effect
  GI50: 0.15 µM

## COc1ccccc1NC(=O)N(CCc1ccc(O)cc1)Cc1ccc(C(=O)NO)cc1
Homo sapiens
  Ratio IC50: 292
B16 [1]
  growth inhibition (GI): Dose-dependent effect
  GI50: 18.4 µM

## COc1ccccc1NC(=O)N(CCCN(C)C)Cc1ccc(C(=O)NO)cc1
Homo sapiens
  Ratio IC50: 6
B16 [1]
  growth inhibition (GI): Dose-dependent effect
  GI50: 75.3 µM

## COc1ccccc1NC(=O)N(CCCO)Cc1ccc(C(=O)NO)cc1
Homo sapiens
  Ratio IC50: 803
B16 [1]
  growth inhibition (GI): Dose-dependent effect
  GI50: > 100 µM

## CCN(C(=O)NCc1ccc(C(=O)NO)cc1)c1ccccc1
Homo sapiens
  Ratio IC50: 330
B16 [1]
  growth inhibition (GI): Dose-dependent effect
  GI50: > 100 µM

## COc1ccccc1NC(=O)N(CCc1c[nH]c2ccccc12)Cc1ccc(C(=O)NO)cc1
Homo sapiens
  Ratio IC50: 19
B16 [1]
  growth inhibition (GI): Dose-dependent effect
  GI50: 30.4 µM

## COCCCN(Cc1ccc(C(=O)NO)cc1)C(=O)Nc1ccccc1
Homo sapiens
  Ratio IC50: 443
B16 [1]
  growth inhibition (GI): Dose-dependent effect
  GI50: 22.2 µM

## CCCCN(Cc1ccc(C(=O)NO)cc1)C(=O)Nc1ccccc1
[2]
  inhibition: Dose-dependent effect
B16 [3]
  inhibition: Active
B16 [4]
  inhibition: inactive
B16 [5]
  inhibition: Active
B16 [1]
  growth inhibition (GI): Dose-dependent effect
